Results taken from patent US20250186317A1, “SKIN CARE COMPOSITION COMPRISING LACTIC ACID, POLYHYDROXY ACID, AND ITS BUFFERING SALT” (The Procter & Gamble Company, priority 2023, published 2025).

System: skin
Test: Bakuchiol penetration to skin from low pH formulations
Conditions: in low pH formulations compared to neutral/alkaline pH formulations

Penetration to skin: improved penetration to skin
Structure (SMILES): C=C[C@@](C)(/C=C/c1ccc(O)cc1)CCC=C(C)C [bakuchiol, Bakuchiol]
